Data on 27 compounds can be found in US9732070B2, “Protein kinase C inhibitors and uses thereof” (Rigel Pharmaceuticals, Inc., priority 2009, dated 2017).

SMILES strings stand for the structures.

One test deals with Human primary T cells. As to the kind of experiment: IL-2 ELISA, human primary T cell, anti-CD3+CD28 stimulation. The class given is cell-based. Conditions: IL-2 quantified by ELISA; human primary T cells stimulated with αCD3 and αCD28, 24 hours. How it is done: Human primary T cell isolation and culture: Human primary T cells were prepared as follows. Whole blood was obtained from a healthy volunteer, mixed 1:1 with PBS, layered on to Ficoll Hypaque (Amersham Pharmacia Biotech, Piscataway, N.J., Catalog #17-1440-03) in 2:1 blood/PBS:ficoll ratio and centrifuged for 30 minutes at 4° C. at 1750 rpm. The cells at the serum: ficoll interface were recovered and washed twice with 5 volumes of PBS. These freshly isolated human peripheral blood mononuclear cells were cultured in Yssel's medium containing 40 U/mL IL2 in a flask pre-coated with 1 μg/mL αCD3 and 5 μg/mL αCD28 (Anti-Human CD3, BD Pharmingen Catalog #555336, Anti-Human CD28, Beckman Coulter Catalog #IM1376). The cells were stimulated for 3-4 days, then transferred to a fresh flask and maintained in RPMI (RPMI-1640 with L-Glutamine; Mediatech, Inc., Herndon Va., cat. #10-040-CM) with 10% FBS and 40 U/mL IL-2. The primary T-cells were then washed twice with PBS to remove the IL-2.
Primary T cell stimulation and IL2 ELISA: Human primary T cells (100,000 cells per well) were pre-incubated with or without test compound in Yssel's medium for 1 hour at 37° C. Cells were then stimulated by transferring them to round-bottom 96-well plates pre-coated with 1 μg/ml αCD3 and 5 μg/ml αCD28. For counter assay, cells were instead stimulated by adding 8× stock solutions of PMA and ionomycin in Yssels (for final concentrations of 0.5 ng/ml PMA and 0.1 uM ionomycin, both from Calbiochem). Cells were incubated at 37° C. for 24 hours before 100 μL supernatants were harvested for quantification of IL-2 by ELISA using Human IL-2 Duoset ELISA Kit from R and D Systems, Cat. # DY202E.
For orientation: ELISA stands for enzyme-linked immunosorbent assay.
Regarding `CC(C)Oc1ccc(Nc2ncc(F)c(NC3CC(C)(C)N(C)C(C)(C)C3)n2)cc1-n1nnn(C)c1=O` [I-10, 5-fluoro-n2-{4-isopropoxy-[3-(4-methyl)-1,2,3,4-tetrazol-5-one-1-yl]}phenyl-n4-(1,2,2,6,6-pentamethylpiperidin-4-yl)-2,4-pyrimidinediamine], the IC50 was less than 500 nM.

Staying with this test, now noted: T-cell; IL-2 quantified by ELISA; human primary T cells stimulated with αCD3 and αCD28, 24 hours.
`Cn1nnn(-c2cc(Nc3ncc(F)c(NC4CC(C)(C)NC(C)(C)C4)n3)ccc2C#N)c1=O` [I-58, N2-(4-cyano-3-(4-methyl-4,5-dihydro-5-oxo-1H-tetrazol-1-yl)phenyl)-5-fluoro-N4-(2,2,6,6-tetramethylpiperidin-4-yl)pyrimidine-2,4-diamine] gave a half-maximal inhibitory concentration (IC50) of less than 500 nM.
On the same count and under the same terms, the value for `CN1C(C)(C)CC(Nc2nc(Nc3ccc(C4CC4)c(-n4nnn(C)c4=O)c3)ncc2F)CC1(C)C` [I-34, N2-{4-cyclopropyl-[3-(4-methyl)-1,2,3,4-tetrazol-5-one-1-yl]}phenyl-5-fluoro-N4-(1,2,2,6,6-pentamethylpiperidin-4-yl)-2,4-pyrimidinediamine] was less than 500 nM.
Still for that read-out and setting: the same measure for `Cn1nnn(-c2cc(Nc3ncc(F)c(NC4CC(C)(C)NC(C)(C)C4)n3)cc(C(F)(F)F)c2)c1=O` [I-48, N2-(3-(4-methyl-4,5-dihydro-5-oso-1H-tetrazol-1-yl)-5-trifluoromethylphenyl)-5-fluoro-N4-(2,2,6,6-tetramethylpiperidin-4-yl)pyrimidine-2,5-diamine]: less than 500 nM.
Still for that read-out and setting: the same measure for `Cn1nnn(-c2cc(Nc3ncc(F)c(NC4CC(C)(C)NC(C)(C)C4)n3)ccc2Cl)c1=O` [I-30, N2-{4-chloro-[3-(4-methyl)-1,2,3,4-tetrazol-5-one-1-yl]}phenyl-5-fluoro-N4-(2,2,6,6-tetramethylpiperidin-4-yl)-2,4-pyrimidinediamine]: less than 500 nM; for `Cn1nnn(-c2cc(Nc3ncc(F)c(NC4CC(C)(C)NC(C)(C)C4)n3)c(F)cc2Cl)c1=O` [I-68]: less than 500 nM; for `Cc1ccc(Nc2ncc(F)c(NC3CC(C)(C)NC(C)(C)C3)n2)cc1-n1nnn(C)c1=O` [I-9, 5-fluoro-n2-{4-methyl-[3-(4-methyl)-1,2,3,4-tetrazol-5-one-1-yl]}phenyl-n4-(2,2,6,6-tetramethylpiperidin-4-yl)-2,4-pyrimidinediamine]: less than 500 nM.
`Cc1ccc(Nc2ncc(F)c(NC3CC(C)(C)N(C)C(C)(C)C3)n2)cc1-n1nnn(C)c1=O` [I-8, 5-fluoro-n2-{4-methyl-[3-(4-methyl)-1,2,3,4-tetrazol-5-one-1-yl]}phenyl-n4-(1,2,2,6,6-pentamethylpiperidin-4-yl)-2,4-pyrimidinediamine] yielded a 50% inhibitory concentration (IC50) of less than 500 nM.
The same measure, in the same setting: the same measure for `CN1C(C)(C)CC(Nc2nc(Nc3ccc(F)c(-n4nnn(C)c4=O)c3F)ncc2F)CC1(C)C` [I-66, N2-(2,4-difluoro-3-(4-methyl-4,5-dihydro-5-oxo-1H-tetrazol-1-yl)phenyl)-5-fluoro-N4-(1,2,2,6,6-pentamethylpiperidin-4-yl)pyrimidine-2,4-diamine]: 3000 to 25000 nM; for `CN1C(C)(C)CC(Nc2nc(Nc3cc(-n4nnn(C)c4=O)c(C4CC4)cc3F)ncc2C#N)CC1(C)C` [I-17, 5-cyano-N2-{4-cyclopropyl-6-fluoro-[3-(4-methyl)-1,2,3,4-tetrazol-5-one-1-yl]}phenyl-N4-(1,2,2,6,6-pentamethylpiperidin-4-yl)-2,4-pyrimidinediamine]: less than 500 nM.
Same read-out and setting: the value for `Cn1nnn(-c2cc(Nc3ncc(F)c(NC4CC(C)(C)NC(C)(C)C4)n3)cc(F)c2C2CC2)c1=O` [I-59, 1-(2-cyclopropyl-3-fluoro-5-(5-fluoro-4-(2,2,6,6-tetramethylpiperidin-4-ylamino)pyrimidin-2-ylamino)phenyl)-4-methyl-1H-tetrazol-5(4H)-one] was less than 500 nM; that for `Cn1nnn(-c2cccc(Nc3ncc(F)c(NC4CC(C)(C)NC(C)(C)C4)n3)c2)c1=O` [I-13] was 510 to 2990 nM.
The same measure, in the same setting: the same measure for `Cn1nnn(-c2cc(Nc3ncc(F)c(NC4CC(C)(C)NC(C)(C)C4)n3)cc(C3CC3)c2)c1=O` [I-35, N2-{5-cyclopropyl-[3-(4-methyl)-1,2,3,4-tetrazol-5-one-1-yl]}phenyl-5-fluoro-N4-(2,2,6,6-tetramethylpiperidin-4-yl)-2,4-pyrimidinediamine]: less than 500 nM.
As to `Cn1nnn(-c2cc(Nc3ncc(C(N)=O)c(NC4CC(C)(C)NC(C)(C)C4)n3)cc(F)c2C2CC2)c1=O` [I-57, N2-(4-cyclopropyl-5-fluoro-3-(4-methyl-4,5-dihydro-5-oxo-1H-tetrazol-1-yl)phenyl)-N4-(2,2,6,6-tetramethylpiperidin-4-yl)pyrimidine-2,4-diamino-5-carboxyamide], the concentration for half-maximal inhibition (IC50) is less than 500 nM.
The same measure, in the same setting: the same measure for `Cc1cc(Nc2ncc(F)c(NC3CC(C)(C)N(C)C(C)(C)C3)n2)cc(-n2nnn(C)c2=O)c1C` [I-45, N2-(4,5-dimethyl-3-(4-methyl-4,5-dihydro-5-oxo-1H-tetrazol-1-yl)phenyl)-5-fluoro-N4-(1,2,2,6,6-pentamethylpiperidin-4-yl)pyrimidine-2,4-diamine]: less than 500 nM; for `CC(C)n1nnn(-c2cc(Nc3ncc(F)c(NC4CC(C)(C)NC(C)(C)C4)n3)ccc2F)c1=O` [I-6]: 510 to 2990 nM.
Same read-out and setting: the value for `Cc1c(-n2nnn(C)c2=O)cc(Nc2ncc(F)c(NC3CC(C)(C)N(C)C(C)(C)C3)n2)cc1C(F)(F)F` [I-54, N2-(4-methyl-3-(4-methyl-4,5-dihysro-5-oxo-1H-tetrazol-1-yl)-5-trifluoromethylphenyl)-5-fluoro-N4-(1,2,2,6,6-pentamethylpiperidin-4-yl)pyrimidine-2,4-diamine] was less than 500 nM; that for `Cc1c(Cl)cc(Nc2ncc(F)c(NC3CC(C)(C)N(C)C(C)(C)C3)n2)cc1-n1nnn(C)c1=O` [I-56, N2-(5-chloro-4-methyl-3-(4-methyl-4,5-dihydro-5-oxo-1H-tetrazol-1-yl)phenyl)-5-fluoro-N4-(1,2,2,6,6-pentamethylpiperidin-4-yl)pyrimidine-2,4-diamine] was less than 500 nM.
As to `Cc1c(-n2nnn(C)c2=O)cc(Nc2ncc(F)c(NC3CC(C)(C)NC(C)(C)C3)n2)cc1C(F)(F)F` [I-53, N2-(4-methyl-3-(4-methyl-4,5-dihydro-5-oxo-1H-tetrazol-1-yl)-5-trifluoromethylphenyl)-5-fluoro-N4-(2,2,6,6-tetramethylpiperidin-4-yl)pyrimidine-2,5-diamine], the IC50 was less than 500 nM.
The same measure, in the same setting: the same measure for `Cn1nnn(-c2cc(Nc3ncc(F)c(NC4CC(C)(C)NC(C)(C)C4)n3)cc(OC3COC3)c2)c1=O` [I-25, 1-(3-(4-(2,2,6,6-tetramethylpiperidin-4-ylamino)-5-fluoropyrimidin-2-ylamino)-5-(oxetan-3-yloxy)phenyl)-4-methyl-1H-tetrazol-5(4H)-one]: less than 500 nM; for `Cn1nnn(-c2cc(Nc3ncc(F)c(NC4CC(C)(C)NC(C)(C)C4)n3)ccc2F)c1=O` [I-4]: less than 500 nM; for `Cc1c(C(=O)O)cc(Nc2ncc(F)c(NC3CC(C)(C)NC(C)(C)C3)n2)cc1-n1nnn(C)c1=O` [I-61]: 3000 to 25000 nM.
Still for that read-out and setting: the value for `Cn1nnn(-c2cc(Nc3ncc(F)c(NC4CC(C)(C)NC(C)(C)C4)n3)cc(C3CC3)c2F)c1=O` [I-43, N2-{5-cyclopropyl-4-fluoro-[3-(4-methyl)-1,2,3,4-tetrazol-5-one-1-yl]}phenyl-5-fluoro-N4-(2,2,6,6-tetramethylpiperidin-4-yl)-2,4-pyrimidinediamine] was less than 500 nM.
The same measure, in the same setting: the same measure for `Cc1cc(Nc2ncc(F)c(NC3CC(C)(C)NC(C)(C)C3)n2)cc(-n2nnn(C)c2=O)c1C` [I-46, N2-(4,5-dimethyl-3-(4-methyl-4,5-dihydro-5-oxo-1H-tetrazol-1-yl)phenyl)-5-fluoro-N4-(2,2,6,6-tetramethylpiperidin-4-yl)pyrimidine-2,4-diamine]: less than 500 nM; for `Cn1nnn(-c2cc(Nc3ncc(F)c(NC4CC(C)(C)NC(C)(C)C4)n3)cc(C(F)(F)F)c2Cl)c1=O` [I-38, N2-{4-chloro-5-trifluoromethyl-[3-(4-methyl)-1,2,3,4-tetrazol-5-one-1-yl]}phenyl-5-fluoro-N4-(2,2,6,6-tetramethylpiperidin-4-yl)-2,4-pyrimidinediamine]: less than 500 nM; for `Cn1nnn(-c2cc(Nc3ncc(F)c(NC4CC(C)(C)NC(C)(C)C4)n3)ccc2C2CC2)c1=O` [I-33, N2-{4-cyclopropyl-[3-(4-methyl)-1,2,3,4-tetrazol-5-one-1-yl]}phenyl-5-fluoro-N4-(2,2,6,6-tetramethylpiperidin-4-yl)-2,4-pyrimidinediamine]: less than 500 nM.
Take `CC1(C)CC(Nc2nc(Nc3ccc(F)c(-n4nn[nH]c4=O)c3)ncc2F)CC(C)(C)N1` [I-2, 5-fluoro-n2-{4-fluoro-[3-(4-h)-1,2,3,4-tetrazol-5-one-1-yl]}phenyl-n4-(2,2,6,6-tetramethylpiperidin-4-yl)-2,4-pyrimidinediamine]: the IC50 is greater than 25000 nM.

Usually IC50 stands for the concentration at which inhibition is half-maximal. High values mean weaker potency in that assay, low ones greater potency in that assay.
